Patent publication US9556158B2, “Fungicidal 3-[(pyridin-2-ylmethoxyimino)(phenyl)methyl]-2-substituted-1,2,4-oxadiazol-5(2H)-one derivatives” (BAYER INTELLECTUAL PROPERTY GMBH, priority 2011, dated 2017)

Columns and labels:
Phytophthora infestans [1] = format: in vivo; settings: 100 ppm of active ingredient, preventive spray, inoculation one day after treatment, evaluated 7 days after inoculation
[2] = pH 2.7, LogP, HPLC on reversed phase columns, pH 2.7, 0.1% formic acid in water / acetonitrile gradient
Procedure: Measurement of log P values was performed according EEC directive 79/831 Annex V.A8 by HPLC (High Performance Liquid Chromatography) on reversed phase columns with the following method:
Measurement of LC-MS was done at pH 2.7 with 0.1% formic acid in water and with acetonitrile (contains 0.1% formic acid) as eluent with a linear gradient from 10% acetonitrile to 95% acetonitrile.
Calibration was done with not branched alkan2-ones (with 3 to 16 carbon atoms) with known log P-values (measurement of log P values using retention times with linear interpolation between successive alkanones). lambda-maX-values were determined using UV-spectra from 200 nm to 400 nm and the peak values of the chromatographic signals.

Plasmopara viticola = test: Example I: in vivo preventive test on Plasmopara viticola (grapevine); settings: 144 h, 10 ppm of active ingredient, preventive spray on young plants, evaluated 6 days after inoculation, read-out: Eff. %
Procedure: In Vivo Preventive Test on Plasmopara viticola (Grapevine)
To produce a suitable preparation of active compound, 1 part by weight of active compound is mixed with the stated amounts of solvent and emulsifier, and the concentrate is diluted with water to the desired concentration.
To test for preventive activity, young plants are sprayed with the preparation of active compound at the stated rate of application. After the spray coating has dried on, the plants are inoculated with an aqueous spore suspension of Plasmopara viticola and then remain for 1 day in an incubation cabinet at approximately 20° C. and a relative atmospheric humidity of 100%. The plant is subsequently placed for 4 days in a greenhouse at approximately 21° C. and a relative atmospheric humidity of approximately 90%. The plants are then misted and placed for 1 day in an incubation cabinet.
The test is evaluated 6 days after the inoculation. 0% means an efficacy which corresponds to that of the untreated control, while an efficacy of 100% means that no disease is observed.

Phytophthora infestans [3] = test: whole plant or invertebrate; format: in vivo; settings: in Solanum lycopersicum, 120 h, read-out: % efficacy
Puccinia recondita = test: Example E: in vivo preventive test on Puccinia recondita (brown rust on wheat); settings: 500 ppm, preventive spray on wheat plants, contamination after 24 hours, grading 12 days after contamination vs control plants
Procedure: In Vivo Preventive Test on Puccinia recondita (Brown Rust on Wheat)
The active ingredients tested are prepared by homogenization in a mixture of acetone/tween/DMSO, and then diluted with water to obtain the desired active material concentration.
Wheat plants (“Scipion” variety), sown in starter cups on a 50/50 peat soil-pozzolana substrate and grown at 22° C., are treated at the 1-leaf stage (10 cm height) by spraying with the active ingredient prepared as described above. Plants, used as controls, are treated with the mixture of acetone/tween/DMSO/water not containing the active material.
After 24 hours, the plants are contaminated by spraying the leaves with an aqueous suspension of Puccinia recondita spores (100 000 spores per ml). The spores are collected from an infected plant and are suspended in water containing 2.5 ml/l of Tween 80 at 10%. The contaminated wheat plants are incubated for 24 hours at 20° C. and at 100% relative humidity, and then for 10 days at 20° C. and at 70-80% relative humidity.
Grading (% of efficacy) is carried out 12 days after the contamination, in comparison with the control plants.
Under these conditions, good (at least 70%) or total protection is observed at a dose of 500 ppm with the following compounds: […]

Pyricularia oryzae = test: whole plant or invertebrate; format: in vivo; settings: 144 h, read-out: % efficacy

| Structure (SMILES) | Eff. % (Phytophthora infestans [1]) | chromatographic logP [2] | pest or weed control at 10 ppm (Plasmopara viticola) | pest or weed control at 500 ppm (Phytophthora infestans [3]) | % efficacy (Puccinia recondita) | pest or weed control at 500 ppm (Pyricularia oryzae) |
| --- | --- | --- | --- | --- | --- | --- |
| C#CCCOC(=O)Nc1cccc(CO/N=C(/c2ccccc2)c2nc(=O)on2C)n1 [Example 1, but-3-yn-1-yl {6-[({[(Z)-(2-methyl-5-oxo-2,5-dihydro-1,2,4-oxadiazol-3-yl)(phenyl)methylene]amino}oxy)methyl]pyridin-2-yl}carbamate] | 98% | 2.71 | 99% |  |  |  |
| Cn1oc(=O)nc1/C(=N\OCc1cccc(NC(=O)OC(C)(C)C)n1)c1ccccc1 [Example 2, tert-butyl {6-[({[(Z)-(2-methyl-5-oxo-2,5-dihydro-1,2,4-oxadiazol-3-yl)(phenyl)methylene]amino}oxy)methyl]pyridin-2-yl}carbamate] | 100% | 3.31 | 100% |  |  |  |
| Cn1oc(=O)nc1/C(=N\OCc1cccc(NCCC2CCCCC2)n1)c1ccccc1 [Example 3, 3-[(Z)-[({6-[(2-cyclohexylethyl)amino]pyridin-2-yl}methoxy)imino](phenyl)methyl]-2-methyl-1,2,4-oxadiazol-5(2H)-one] |  | 2.43 | 93% |  |  |  |
| CCCCOCCNc1cccc(CON=C(c2ccccc2)c2nc(=O)on2C)n1 [Example 6] | 95% | 2.13 |  |  |  |  |
| Cn1oc(=O)nc1C(=NOCc1cccc(NC(=O)C(C)(C)C)n1)c1ccccc1 [Example 9] |  | 2.86 |  | 99% | 71% | 71% |
| CCCCCOC(=O)Nc1cccc(CON=C(c2ccccc2)c2nc(=O)on2C)n1 [Example 13] |  | 3.81 | 95% | 100% |  |  |
| CCCCOC(=O)Nc1cccc(CON=C(c2ccccc2)c2nc(=O)on2C)n1 [Example 14] |  | 3.39 | 94% | 100% |  |  |
| Cn1oc(=O)nc1/C(=N\OCc1cccc(NC(=O)OCCc2ccccc2)n1)c1ccccc1 [Example 15, 2-phenylethyl {6-[({[(Z)-(2-methyl-5-oxo-2,5-dihydro-1,2,4-oxadiazol-3-yl)(phenyl)methylene]amino}oxy)methyl]pyridin-2-yl}carbamate] |  | 3.57 | 94% | 99% |  |  |
| Cn1oc(=O)nc1C(=NOCc1cccc(NC(=O)OCc2ccccc2)n1)c1ccccc1 [Example 17] |  | 3.41 | 82% | 100% | 83% |  |
| CCCC(C)C(=O)Nc1cccc(CON=C(c2ccccc2)c2nc(=O)on2C)n1 (stereo not drawn) [Example 18] |  | 3.19 |  | 100% | 78% |  |
| CC(C)CC(=O)Nc1cccc(CON=C(c2ccccc2)c2nc(=O)on2C)n1 [Example 19] |  | 2.82 |  | 100% | 89% |  |
| Cn1oc(=O)nc1/C(=N\OCc1cccc(NC(=O)OC(C)(C)C)n1)c1cccc(F)c1 [Example 20, tert-butyl {6-[({[(Z)-(2-methyl-5-oxo-2,5-dihydro-1,2,4-oxadiazol-3-yl)(3-fluorophenyl)methylene]amino}oxy)methyl]pyridin-2-yl}carbamate] |  | 3.46 | 74% | 100% |  | 81% |
| COc1cccc(C(=NOCc2cccc(NC(=O)OC(C)(C)C)n2)c2nc(=O)on2C)c1 [Example 22] |  | 3.39 |  |  | 94% |  |
| COc1cccc(C(=NOCc2cccc(NC(=O)C(C)Oc3ccccc3)n2)c2nc(=O)o[nH]2)c1 (stereo not drawn) [Example 44] |  | 3.39 |  | 100% |  | 83% |
| C#CCOC(=O)Nc1cccc(CON=C(c2cccc(F)c2)c2nc(=O)o[nH]2)n1 [Example 46] |  | 2.69 |  | 100% |  | 83% |
| O=C(CCc1ccccc1)Nc1cccc(CON=C(c2cccc(F)c2)c2nc(=O)o[nH]2)n1 [Example 47] |  | 3.29 |  | 100% |  | 75% |
| C#CCCOC(=O)Nc1cccc(CON=C(c2cccc(F)c2)c2nc(=O)o[nH]2)n1 [Example 49] |  | 2.8 |  | 93% |  | 83% |
| O=C(COc1ccccc1)Nc1cccc(CON=C(c2cccc(F)c2)c2nc(=O)o[nH]2)n1 [Example 51] |  | 3.21 |  | 100% |  | 83% |
| CC(C)CCOC(=O)Nc1cccc(CON=C(c2cccc(F)c2)c2nc(=O)o[nH]2)n1 [Example 52] |  | 3.83 |  | 100% |  | 75% |
| CCCCCC(=O)Nc1cccc(CON=C(c2cccc(OC)c2)c2nc(=O)o[nH]2)n1 [Example 53] |  | 3.31 |  | 95% |  | 75% |

| Structure (SMILES) | Eff. % (Phytophthora infestans [1]) | chromatographic logP [2] | pest or weed control at 10 ppm (Plasmopara viticola) | pest or weed control at 500 ppm (Phytophthora infestans [3]) | % efficacy (Puccinia recondita) | pest or weed control at 500 ppm (Pyricularia oryzae) |
| --- | --- | --- | --- | --- | --- | --- |
| CCCCC(=O)Nc1cccc(CON=C(c2cccc(OC)c2)c2nc(=O)o[nH]2)n1 [Example 54] |  | 2.96 |  | 100% |  | 83% |
| Cc1ccc(C(=O)Nc2cccc(CON=C(c3cccc(C)c3)c3nc(=O)on3C)n2)cc1 [Example 80] |  | 3.53 |  | 80% |  |  |
| Cc1cccc(C(=NOCc2cccc(NC(=O)c3ccccc3)n2)c2nc(=O)on2C)c1 [Example 82] |  | 3.21 |  | 75% |  |  |
| C#CCC(C)OC(=O)Nc1cccc(CON=C(c2cccc(C)c2)c2nc(=O)on2C)n1 (stereo not drawn) [Example 83] |  | 3.25 |  | 94% |  |  |
| C#CCCOC(=O)Nc1cccc(CON=C(c2cccc(C)c2)c2nc(=O)on2C)n1 [Example 84] |  | 2.96 |  | 100% |  |  |
| Cc1cccc(C(=NOCc2cccc(NC(=O)CC(C)C)n2)c2nc(=O)on2C)c1 [Example 85] |  | 3.13 |  | 100% |  |  |
| Cc1cccc(C(=NOCc2cccc(NC(=O)c3ccc(F)cc3)n2)c2nc(=O)on2C)c1 [Example 87] |  | 3.33 |  | 75% |  |  |
| C#CCC(C)OC(=O)Nc1cccc(CON=C(c2cccc(OC)c2)c2nc(=O)on2C)n1 (stereo not drawn) [Example 94] |  | 3.02 |  | 85% |  |  |
| C#CCCOC(=O)Nc1cccc(CON=C(c2cccc(OC)c2)c2nc(=O)on2C)n1 [Example 96] |  | 2.75 |  | 90% |  |  |
| CC(Oc1ccccc1)C(=O)Nc1cccc(CON=C(c2cccc(F)c2)c2nc(=O)on2C)n1 (stereo not drawn) [Example 97] |  | 3.44 |  | 70% |  |  |
| C#CCC(C)OC(=O)Nc1cccc(CON=C(c2cccc(F)c2)c2nc(=O)on2C)n1 (stereo not drawn) [Example 99] |  | 3.09 |  | 100% |  |  |
| COc1ccc(CC(=O)Nc2cccc(CON=C(c3cccc(C)c3)c3nc(=O)on3C)n2)cc1 [Example 100] |  | 3.19 |  | 100% |  |  |
| COc1cccc(C(=NOCc2cccc(NC(=O)OCCC(C)C)n2)c2nc(=O)on2C)c1 [Example 101] |  | 3.78 |  | 70% |  |  |
| CCCCCOC(=O)Nc1cccc(CON=C(c2cccc(OC)c2)c2nc(=O)on2C)n1 [Example 102] |  | 3.83 |  | 98% |  |  |
| Cc1cccc(C(=NOCc2cccc(NC(=O)C(C)Oc3ccccc3)n2)c2nc(=O)on2C)c1 (stereo not drawn) [Example 103] |  | 3.64 |  | 80% |  |  |
| COc1cccc(C(=NOCc2cccc(NC(=O)OCc3ccccc3)n2)c2nc(=O)on2C)c1 [Example 104] |  | 3.42 |  | 88% |  |  |
| COc1cccc(C(=NOCc2cccc(NC(=O)Cc3cccc(F)c3)n2)c2nc(=O)on2C)c1 [Example 105] |  | 3.09 |  | 75% |  |  |
| COc1cccc(C(=NOCc2cccc(NC(=O)c3ccc(C)cc3)n2)c2nc(=O)on2C)c1 [Example 106] |  | 3.27 |  | 90% |  |  |
| CC#CCOC(=O)Nc1cccc(CON=C(c2cccc(C)c2)c2nc(=O)on2C)n1 [Example 107] |  | 3.13 |  | 93% |  |  |
